Reference: US5326566A, “Use of dibutyl adipate and isopropyl myristate in topical and transdermal products” (Bristol-Myers Squibb Company, priority 1993, dated 1994)
Where two headings read alike, the source gives them in different places.

Columns and labels:
[1] = literature (Martindale) for dimethyl sulfoxide; cited from earlier work
[2] = From the text: Only skin that appeared normal was used.
Halobetasol propionate is commercially available by Bristol-Myers Squibb as ULTRAVATE® Cream and ULTRAVATE® Ointment. ULTRAVATE® Cream is an oil-in-water emulsion containing isopropyl palmitate and isopropyl isostearate as emollients. The ULTRAVATE® Ointment is a nonaqueous emulsion of propylene glycol in a petrolatum base.
In a different human skin study, the in vitro skin penetration of halobetasol propionate from ULTRAVATE® Ointment, FN8-1114-16 cream and FN8-1114-13 cream, was evaluated (see Table 3, Study II). ULTRAVATE® Ointment was used as a control in order to normalize the data, and to assist in the comparison of skin penetration of different formulations when evaluated for skin penetration in different human skin.

[3] = applied topically; more pronounced in occluded condition; cited from earlier work
[4] = prior art skin permeation enhancers; cited from earlier work
[5] = tested on: utriculi of rhino mouse skin; test: Rhino mouse utriculi model (efficacy of tretinoin formulations, reduction of utriculi diameter); assay type: in vivo; conditions: topical, once a day for five days, FIG. 4
Protocol: Female rhino mice were obtained from the Skin and Cancer Hospital, Temple University, Philadelphia, Pennsylvania. Upon receipt, the rhino mice were treated with an anti-parasitic agent, trichlorfon (COMBOT®), to rid them of pinworms. It was administered in their drinking water for two weeks. An additional two weeks was allowed to pass without COMBOT® treatment before mice were placed on study. Animals were housed in accordance with the National Institute of Health guidelines and had free access to food and water. At the time of the study initiation, the mice were 9-14 weeks old.
The mice were individually housed in a plastic shoe box cage with corn cob bedding and placed in rooms illuminated with yellow lights, cycled for 12 hours on and 12 hours off during the study. […]
The sheets were then evaluated for changes in the sizes of the utriculi as follows: The maximum diameter of 20 representative utriculi per tissue sample were measured, using an IBM PC computer image measurement program (Microscience, Inc., Federal Way, Washington D.C.) and an Olympus microscope (200×magnification). Retinoid effects were evaluated as a percent reduction in uterine diameter by comparing mean diameter of the vehicle treated groups to that of formulation treated groups.

[6] = Saturation / degree of unsaturation of the oil phase; assay type: physicochemical; conditions: 0.5 wt % DBA and 10 wt % IPM as solvents in the oil phase
Description: A degree of unsaturation of 1.5 means that the amount of DBA, or DBA and IPM, present in the oil phase is one and a half times the amount required to dissolve the halobetasol propionate in the oil phase of the composition so that the final oil phase of the composition is saturated with respect to the halobetasol propionate, plus contains a 50% excess of such solvent(s).
An unsaturation value of 1.5 means the oil phase of the final composition contains more of the solvent system of the present invention than the minimum required to make such oil phase saturated, saturation of course being relative to the halobetasol propionate. The 1.5 unsaturation value indicates the oil phase of the final composition contains 11/2 times the amount of solvent system required to produce a final composition the oil phase of which is saturated with respect to halobetasol propionate (in other words, the oil phase of the final composition contains a 50% surplus of the solvent system of the invention).

## CN(C)C=O [Dimethyl formamide, dimethyl formamide]
[1]
  side effects, in words: cause a sensation of burning and erythema on the skin

## CC(O)CO (stereo not drawn) [PG, propylene glycol]
[2]
  skin penetration enhancement of halobetasol propionate by solvent/enhancer, in words: does not improve the skin penetration of halobetasol propionate any further
[3]
  irritation/sensitization, in words: can be a sensitizer and irritant when applied topically

## CCCCCCCCCC[S+](C)[O-] (stereo not drawn) [decyl methyl sulfoxide]
[4]
  skin permeation of oil-soluble drugs, in words: generally do not increase skin permeation of oil-soluble drugs

## CCCCOC(=O)CCCCC(=O)OCCCC [dibutyl adipate]
[5]
  efficacy of tretinoin formulations (rank order / activity in words): increases the efficacy and hence the topical bioavailability of tretinoin

## C[S+](C)[O-] [dimethyl sulfoxide]
[1]
  side effects, in words: causes in animals a foul taste and body odor, burning and erythema on the skin, a reduction in the relucency of the lens cortex and tissue necrosis

## CCC(=O)O[C@]1(C(=O)CCl)[C@@H](C)C[C@H]2[C@@H]3C[C@H](F)C4=CC(=O)C=C[C@]4(C)[C@@]3(F)[C@@H](O)C[C@@]21C [halobetasol propionate]
[6]
  saturated solution of halobetasol propionate in the oil phase: 0.05 wt %

## CC(C)CCCCCCCCCCCCCCC(=O)OC(C)C [isopropyl isostearate]
[2]
  skin penetration enhancement of halobetasol propionate by solvent/enhancer, in words: did not enhance the penetration of halobetasol propionate from ULTRAVATE® Cream as compared to ULTRAVATE® Ointment

## CCCCCCCCCCCCCCCC(=O)OC(C)C [isopropyl palmitate]
[2]; conclusions from Study I and Study II
  skin penetration enhancement of halobetasol propionate by solvent/enhancer, in words: did not enhance the penetration of halobetasol propionate from ULTRAVATE® Cream as compared to ULTRAVATE® Ointment
